Source: patent publication US7566712B2, “Biaryl piperazinyl-pyridine analogues” (Neurogen Corporation, priority 2003, dated 2009)

Target: T1, human capsaicin receptor (Homo sapiens, UniProt Q8NER1)
T1 construct: pBK-CMV expression construct encoding the full length human capsaicin receptor; expressed in transfected cells
Experiment: Calcium mobilization assay, determination of antagonist activity (Example 6)
Assay type: cell-based
Conditions: Table II
Method in brief: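 Antagonism measured as inhibition of capsaicin-evoked (final concentration = EC50, from an 8-point 1 nM–3 μM curve) Fluo-3 calcium signal in stable hVR1-HEK293 cells. Test compounds at 1–5 μM final, 0.5–6 h dark preincubation at room temperature. IC50 = concentration giving 50% reduction versus agonist-only response.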

[1] = determined as described in Example 6 (antagonist activity), "*" = 1 micromolar or less
[2] = determined as described in Example 6 (calcium mobilization, antagonist activity)
[3] = IC50 determined as described in Example 6

T1 sequence (Q8NER1 whole entry): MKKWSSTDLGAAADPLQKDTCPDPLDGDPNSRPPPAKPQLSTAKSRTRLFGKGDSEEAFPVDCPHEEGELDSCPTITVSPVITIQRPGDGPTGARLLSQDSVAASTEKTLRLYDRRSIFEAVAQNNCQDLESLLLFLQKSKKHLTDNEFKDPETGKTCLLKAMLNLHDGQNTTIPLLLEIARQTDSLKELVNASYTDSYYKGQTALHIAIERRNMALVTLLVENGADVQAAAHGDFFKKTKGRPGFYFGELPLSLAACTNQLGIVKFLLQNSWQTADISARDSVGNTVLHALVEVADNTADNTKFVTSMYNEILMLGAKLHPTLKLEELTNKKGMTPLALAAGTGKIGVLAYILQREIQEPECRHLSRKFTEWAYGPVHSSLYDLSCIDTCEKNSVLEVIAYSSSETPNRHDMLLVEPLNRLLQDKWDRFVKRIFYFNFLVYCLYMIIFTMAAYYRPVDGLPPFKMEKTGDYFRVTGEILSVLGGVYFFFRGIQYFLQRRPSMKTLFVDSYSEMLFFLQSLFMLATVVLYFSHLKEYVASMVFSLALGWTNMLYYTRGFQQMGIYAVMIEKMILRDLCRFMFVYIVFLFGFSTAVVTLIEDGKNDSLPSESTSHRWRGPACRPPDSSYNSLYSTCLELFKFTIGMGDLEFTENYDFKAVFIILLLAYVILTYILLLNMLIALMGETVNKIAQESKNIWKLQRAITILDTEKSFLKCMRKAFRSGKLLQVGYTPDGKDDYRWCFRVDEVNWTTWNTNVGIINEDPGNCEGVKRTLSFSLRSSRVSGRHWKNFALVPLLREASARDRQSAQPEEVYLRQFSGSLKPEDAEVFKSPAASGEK

IC50 [2] [µM]	Structure (SMILES)	also measured
–	CC(C)c1cc(-c2cc(N3CCN(c4ncccc4C(F)(F)F)CC3)nc(N3CCCC3C)n2)ccn1 (stereo not drawn) [Example 796, 4-(2-isopropylpyridin-4-yl)-2-(2-methylpyrrolidin-1-yl)-6-{4-[3-(trifluoromethyl)pyridin-2-yl]piperazin-1-yl}pyrimidine]	IC50 [1]: ≤ 1 µM
≤ 1	CC(=O)N1CCN(c2nc(-c3ccc(F)c(Cl)c3)cc(N3CCN(c4ncccc4C(F)(F)F)CC3)n2)CC1 [Example 625, 2-(4-acetylpiperazin-1-yl)-4-(3-chloro-4-fluorophenyl)-6-{4-[3-(trifluoromethyl)pyridin-2-yl]piperazin-1-yl}pyrimidine]	–
≤ 1	O=C1CN(c2nc(-c3ccc(F)c(Cl)c3)cc(N3CCN(c4ncccc4C(F)(F)F)CC3)n2)CCN1 [Example 654, 4-(4-(3-chloro-4-fluorophenyl)-6-{4-[3-(trifluoromethyl)pyridin-2-yl]piperazin-1-yl}pyrimidin-2-yl)piperazin-2-one]	–
–	CCCN1CCN(c2nc(-c3ccc(F)c(C)c3)cc(N3CCN(c4ncccc4C(F)(F)F)C[C@H]3C)n2)CC1 [Example 787, 4-(4-fluoro-3-methylphenyl)-6-{(2R)-2-methyl-4-[3-(trifluoromethyl)pyridin-2-yl]piperazin-1-yl}-2-(4-propylpiperazin-1-yl)pyrimidine]	IC50 [1]: ≤ 1 µM
–	CCCN1CCN(c2nc(-c3ccc(F)c(Cl)c3)cc(N3CCN(c4ncccc4C(F)(F)F)CC3)n2)CC1 [Example 547, 4-(3-chloro-4-fluorophenyl)-2-(4-propylpiperazin-1-yl)-6-{4-[3-(trifluoromethyl)pyridin-2-yl]piperazin-1-yl}pyrimidine]	IC50 [3]: ≤ 1 µM
–	C[C@@H]1CN(c2ncccc2C(F)(F)F)CCN1c1cc(-c2ccc(Cl)cc2)nc(N2CCOCC2)n1 [Example 484, 4-(4-(4-chlorophenyl)-6-{(2R)-2-methyl-4-[3-(trifluoromethyl)pyridin-2-yl]piperazin-1-yl}pyrimidin-2-yl)morpholine]	IC50 [3]: ≤ 1 µM
≤ 1	CC(C)N(C)c1nc(-c2ccc(F)c(Cl)c2)cc(N2CCN(c3ncccc3Cl)CC2)n1 [Example 725, 4-(3-chloro-4-fluorophenyl)-6-[4-(3-chloropyridin-2-yl)piperazin-1-yl]-N-isopropyl-N-methylpyrimidin-2-amine]	–
–	Fc1ccc(-c2cc(N3CCN(c4ncccc4C(F)(F)F)CC3)nc(OC3CCNCC3)n2)cc1Cl [Example 561, 4-(3-chloro-4-fluorophenyl)-2-(piperidin-4-yloxy)-6-{4-[3-(trifluoromethyl)pyridin-2-yl]piperazin-1-yl}pyrimidine]	IC50 [3]: ≤ 1 µM
≤ 1	Cc1cc(-c2cc(N3CCN(c4ncccc4C(F)(F)F)CC3)nc(N(CCO)CCO)n2)ccc1F [Example 678]	–
≤ 1	Cc1cc(-c2cc(N3CCN(c4ncccc4Cl)CC3)nc(N3CCOC(C)(C)C3)n2)ccc1F [Example 743, 4-{4-[4-(3-chloropyridin-2-yl)piperazin-1-yl]-6-(4-fluoro-3-methylphenyl)pyrimidin-2-yl]-2,2-dimethylmorpholine]	–
–	CC1CCCN1c1nc(-c2ccc(F)cc2)cc(N2CCN(c3nc(O)ccc3Cl)C[C@H]2C)n1 (stereo partly drawn) [Example 970, 5-chloro-6-{4-[6-(4-fluorophenyl)-2-(2-methylpyrrolidin-1-yl)pyrimidin-4-yl]-3-methylpiperazin-1-yl}pyridin-2-ol]	IC50 [1]: ≤ 1 µM
≤ 1	Fc1ccc(-c2cc(N3CCN(c4ncccc4C(F)(F)F)CC3)nc(-c3ccncc3)n2)cc1Cl [Example 617, 4-(3-chloro-4-fluorophenyl)-2-pyridin-4-yl-6-{4-[3-(trifluoromethyl)pyridin-2-yl]piperazin-1-yl}pyrimidine]	–
–	C=CCN1CCN(c2nc(-c3cccc(F)c3)nc(N3CCN(c4ncccc4C(F)(F)F)CC3)n2)CC1 [Example 448, 2-(4-allylpiperazin-1-yl)-4-(3-fluorophenyl)-6-{4-[3-(trifluoromethyl)pyridin-2-yl]piperazin-1-yl}-1,3,5-triazine]	IC50 [3]: ≤ 1 µM
–	CC(=O)NC1CCN(c2nc(-c3ccc(F)c(Cl)c3)cc(N3CCN(c4ncccc4C(F)(F)F)CC3)n2)CC1 [Example 571, N-[1-(4-(3-chloro-4-fluorophenyl)-6-{4-[3-(trifluoromethyl)pyridin-2-yl]piperazin-1-yl}pyrimidin-2-yl)piperidin-4-yl]acetamide]	IC50 [3]: ≤ 1 µM
≤ 1	CN(C)C(=O)[C@@H]1CCCN1c1nc(-c2ccc(F)c(Cl)c2)cc(N2CCN(c3ncccc3C(F)(F)F)CC2)n1 [Example 711, 1-(4-(3-chloro-4-fluorophenyl)-6-{4-[3-(trifluoromethyl)pyridin-2-yl]piperazin-1-yl}pyrimidin-2-yl)-N,N-dimethyl-L-prolinamide]	–
–	CSc1nc(-c2ccc(F)cc2)cc(N2CCN(c3ncccc3Cl)C[C@H]2C)n1 (stereo in doubt) [Example 839, 4-[4-(3-chloropyridin-2-yl)-2-methylpiperazin-1-yl]-6-(4-fluorophenyl)-2-(methylthio)pyrimidine]	IC50 [1]: ≤ 1 µM
≤ 1	CCN(CC)c1nc(-c2cccc(C)c2)cc(N2CCN(c3ncccc3C(F)(F)F)CC2)n1 [Example 604, N,N-diethyl-4-(3-methylphenyl)-6-{4-[3-(trifluoromethyl)pyridin-2-yl]piperazin-1-yl}pyrimidin-2-amine]	–
≤ 1	Cc1cc(-c2cc(N3CCN(c4ncccc4C(F)(F)F)C[C@H]3C)nc(N3CCCC3C)n2)ccc1F (stereo partly drawn) [Example 754, 4-(4-fluoro-3-methyiphenyl)-2-(2-methylpyrrolidin-1-yl)-6-{(2R)-2-methyt-4-[3-(trifluoromethyl)pyridin-2-yl]piperazin-1-yl}pyrimidine]	–
–	C[C@@H]1CN(c2nccnc2Cl)CCN1c1cc(-c2ccc(F)c(Cl)c2)nc(N2CCCC2)n1 [Example 909, 4-(3-chloro-4-fluorophenyl)-6-[(2R)-4-(3-chloropyrazin-2-yl)-2-methylpiperazin-1-yl]-2-pyrrolidin-1-ylpyrimidine]	IC50 [1]: ≤ 1 µM
≤ 1	Fc1ccc(-c2cc(N3CCN(c4ncccc4C(F)(F)F)CC3)nc(SCc3ccccc3)n2)cc1Cl [Example 649, 2-(benzylthio)-4-(3-chloro-4-fluorophenyl)-6-{4-[3-(trifluoromethyl)pyridin-2-yl]piperazin-1-yl}pyrimidine]	–
≤ 1	CC(C)CN(C)c1nc(-c2ccc(F)c(Cl)c2)cc(N2CCN(c3ncccc3C(F)(F)F)CC2)n1 [Example 615, 4-(3-chloro-4-fluorophenyl)-N-isobuty-methyl-6-{4-[3-(trifluoromethyl)pyridin-2-yl]piperazin-1-yl}pyrimidin-2-amine]	–
≤ 1	CC(C)c1nccn1-c1nc(-c2cccc(Cl)c2)cc(N2CCN(c3ncccc3C(F)(F)F)CC2)n1 [Example 618, 4-(3-chlorophenyl)-2-(2-isopropyl-1H-imidazol-1-yl)-6-{4-[3-(trifluoromethyl)pyridin-2-yl]piperazin-1-yl}pyrimidine]	–
–	COCCOc1nc(-c2ccc(F)c(Cl)c2)cc(N2CCN(c3ncccc3C(F)(F)F)CC2)n1 [Example 554, 4-(3-chloro-4-fluorophenyl)-2-(2-methoxyethoxy)-6-{4-[3-(trifluoromethyl)pyridin-2-yl]piperazin-1-yl}pyrimidine]	IC50 [3]: ≤ 1 µM
–	Cc1ccc(C)n1-c1nc(-c2ccc(C#N)cc2)cc(N2CCN(c3ncccc3C(F)(F)F)CC2)n1 [Example 876, 4-(2-(2,5-dimethyl-1H-pyrrol-1-yl)-6-{4-[3-(trifluoromethyl)pyridin-2-yl]piperazin-1-yl}pyrimidin-4-yl)benzonitrie]	IC50 [1]: ≤ 1 µM
